Laboratory results: patent US8278345B2, “Inhibitors of glutaminyl cyclase” (Probiodrug AG, priority 2006, dated 2012)
Read-outs that look alike come from different tables or passages of the source.

Key:
hQC = hQC (Homo sapiens, UniProt Q16769); assay: Inhibitor assay for glutaminyl cyclase activity (fluorometric, H-Gln-βNA / H-Gln-AMC); format: biochemical
In short: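 Ki values came from fitting progress curves to a competitive inhibition model; rapid screens used 4 mM inhibitor with substrate at KM. QC activity was read at 30 °C via auxiliary pyroglutamyl aminopeptidase releasing βNA (0.2 mM H-Gln-βNA, 0.2 M Tris pH 8.0, 20 mM EDTA) or AMC (0.05 M Tris pH 8.0, 5 mM EDTA).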

[1] = compound from preparative synthesis, purified, read-out: IC50 hQC
[2] = compound from preparative synthesis, purified

Sequence of hQC (Q16769 29-361): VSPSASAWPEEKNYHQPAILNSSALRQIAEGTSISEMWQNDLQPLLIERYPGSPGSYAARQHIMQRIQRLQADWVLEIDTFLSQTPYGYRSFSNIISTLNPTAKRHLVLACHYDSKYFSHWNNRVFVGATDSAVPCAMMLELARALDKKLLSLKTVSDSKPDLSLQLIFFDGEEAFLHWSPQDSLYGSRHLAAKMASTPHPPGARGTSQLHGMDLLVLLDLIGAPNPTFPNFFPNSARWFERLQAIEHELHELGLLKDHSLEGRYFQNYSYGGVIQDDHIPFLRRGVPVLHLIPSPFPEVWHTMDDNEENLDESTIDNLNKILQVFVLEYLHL

SMILES	melting point [°C]	IC50 (hQC; [1]) [nM]	IC50 (hQC; read-out: IC50) [nM]	Ki (hQC; [2]) [nM]
O=C1C(O)=C(c2ccccc2)C(c2cnc3ccccc3c2)N1c1ccc2[nH]cnc2c1 (stereo not drawn) [Compound 420, 1-(1H-Benzoimidazol-5-yl)-3-hydroxy-4-phenyl-5-quinolin-3-yl-1,5-dihydro-pyrrol-2-one]	108	32	4	–
O=C1C(O)=C(c2ccccc2)C(c2cc(F)cc(F)c2F)N1c1ccc2[nH]cnc2c1 (stereo not drawn) [Compound 445, 1-(1H-Benzoimidazol-5-yl)-3-hydroxy-4-phenyl-5-(2,3,5-trifluoro-phenyl)-1,5-dihydro-pyrrol-2-one]	150	2.6	4	–
CC1=C(O)C(=O)N(c2ccc3[nH]cnc3c2)C1c1cccc(Cl)c1Cl (stereo not drawn) [Compound 468, 1-(1H-benzo[d]imidazol-5-yl)-5-(2,3-dichlorophenyl)-3-hydroxy-4-methyl-1H-pyrrol-2(5H)-one]	162 to 174	–	75	14.6
CC1=C(O)C(=O)N(c2ccc3[nH]cnc3c2)C1c1cc(F)c(F)cc1F (stereo not drawn) [Compound 469, 1-(1H-benzo[d]imidazol-5-yl)-5-(2,4,5-trifluorophenyl)-3-hydroxy-4-methyl-1H-pyrrol-2(5H)-one]	184	–	233	53.6

Further lines, results first:

melting point [°C]	IC50 (hQC; [1]) [nM]	IC50 (hQC; read-out: IC50) [nM]	Ki (hQC; [2]) [nM]	SMILES
266	246	40	–	CCCC(=O)C1=C(O)C(=O)N(c2ccc3[nH]cnc3c2)C1c1ccc2nonc2c1 (stereo not drawn) [Compound 421, 1-(1H-Benzoimidazol-5-yl)-5-benzo[c][1,2,5]oxadiazol-5-yl-4-butyryl-3-hydroxy-1,5-dihydro-pyrrol-2-one]
195	118	4	–	CC(=O)C1=C(O)C(=O)N(c2ccc3[nH]cnc3c2)C1c1cc(Br)ccc1F (stereo not drawn) [Compound 437, 4-Acetyl-1-(1H-benzoimidazol-5-yl)-5-(5-bromo-2-fluoro-phenyl)-3-hydroxy-1,5-dihydro-pyrrol-2-one]
170	11.4	4	–	O=C(C1=C(O)C(=O)N(c2ccc3[nH]cnc3c2)C1c1ccc2nonc2c1)C1CC1 (stereo not drawn) [Compound 440, 1-(1H-Benzoimidazol-5-yl)-5-benzo[c][1,2,5]oxadiazol-5-yl-4-cyclopropanecarbonyl-3-hydroxy-1,5-dihydro-pyrrol-2-one]
155	1.35	4	–	O=C(C1=C(O)C(=O)N(c2ccc3[nH]cnc3c2)C1c1ccc2cccc(O)c2n1)C1CC1 (stereo not drawn) [Compound 446, 1-(1H-Benzoimidazol-5-yl)-4-cyclopropanecarbonyl-3-hydroxy-5-(8-hydroxy-quinolin-2-yl)-1,5-dihydro-pyrrol-2-one]
